From PMC5790795, “N-Acetylmuramic Acid (MurNAc) Auxotrophy of the Oral Pathogen Tannerella forsythia: Characterization of a MurNAc Kinase and Analysis of Its Role in Cell Wall Metabolism” (Frontiers in Microbiology, 2018)

Biological target: T1, Tf_MurK (rTf_MurK; Tanf_08380) (Tannerella forsythia, UniProt G8UQH1)
T1 construct: gene BFO_0034
T1 sequence (G8UQH1 19-302): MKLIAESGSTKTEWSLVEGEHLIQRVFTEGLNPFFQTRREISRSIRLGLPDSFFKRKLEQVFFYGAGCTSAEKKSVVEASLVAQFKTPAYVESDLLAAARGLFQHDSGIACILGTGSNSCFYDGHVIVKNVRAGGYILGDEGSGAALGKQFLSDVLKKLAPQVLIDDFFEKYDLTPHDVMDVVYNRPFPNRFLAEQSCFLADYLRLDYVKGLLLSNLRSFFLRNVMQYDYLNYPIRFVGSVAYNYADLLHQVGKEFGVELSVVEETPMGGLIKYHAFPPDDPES
Assay: coupled pyruvate kinase / lactate dehydrogenase assay, NADH at […] nm
Type: biochemical
Conditions: ATP, 10 mM MgCl2, 50 mM phosphate pH 7.0, 20 °C; substrate inhibition constant

In the case of CC(=O)N[C@H]1C(O)O[C@H](CO)[C@@H](O)[C@@H]1O[C@H](C)C(=O)O (stereo partly shown) [MurNAc], the “Ki(S)” value is reported as 4.2 mM.
